Test results as given in article PMC4163382, “Symbiotic Plant Peptides Eliminate Candida albicans Both In Vitro and in an Epithelial Infection Model and Inhibit the Proliferation of Immortalized Human Cells” (BioMed Research International, 2014).
Ends that are not written are not given here. Peptide text beside a SMILES is read from it.

Columns and labels:
C. albicans WO-1 = format: cell-based, Candida albicans; conditions: for Minimal fungicidal concentration, 3 h: WO-1, 3 h; for Minimal fungicidal concentration, 24 h: WO-1, 24 h
Method: (§1) The antifungal activity of the NCR peptides against C. albicans strains and other Candida species was determined in vitro using 96-well flat bottom microtiter plates (Sarstedt). Fifty microliters of dilutions from each peptide (final concentrations in the assays ranged from 2.5 to 100 μg/mL) was added to 50 μL of 10^4 cells mL^−1 and 10^5 cells mL^−1 in LSM. The plates were incubated at 30°C and the peptide concentrations that prevented the germination of yeast cells were determined by microscopic analysis and measurement of absorbance at 600 nm with a microtiter plate reader (FLUOstar OPTIMA; BMG Labtech) after 24 and 48 hours. Minimal inhibitory concentration (MIC) was determined as the lowest concentration of the peptide at which there was no visible and measurable growth after 24 hours of incubation. To determine whether the antifungal effect was fungistatic or fungicidal, 10 μL from each treatment was dropped onto solid YPD plate after 3 and 24 hours. Plates were incubated at 30°C for 48 hours and developing colonies were observed. Minimal fungicidal concentration (MFC) was defined where no fungal growth could be observed.

[1] = test system: C. albicans strains WO-1 and Sc 5314; assay: Microdilution antifungal assay, summary for C. albicans; format: cell-based, Candida albicans; conditions: for Anticandidal activity against the yeast form of growing C. albicans: strains WO-1 and Sc 5314, LSM medium, microdilution plate assay
Method: as §1

[2] = test system: PK E6/E7 vaginal epithelial cells; assay: MTT assay, cytotoxicity on human epithelial cells; format: cell-based; conditions: 10 μg/mL, MTT assay, cytotoxic control
Method: The immortalized human vaginal epithelial cell line PK E6/E7 [15] was cultured in serum-free CKM supplemented with 0.005 μg/mL recombinant epidermal growth factor, 50 μg/mL bovine pituitary extract, L-glutamine, and antibiotic/antimycotic solution (Life Technologies) in a CO2 thermostat at 37°C [16]. Cells at 60–70% confluence were used in subsequent experiments.
MTT Assay. PK E6/E7 vaginal epithelial cells were seeded in the wells of a 96-well plate at a density of 1 × 10^4 cells per well in a final volume of 100 μL. CKM was then aspirated and 100 μL of the appropriate peptide diluted in PBgluc was added. After 3 hours of incubation at 37°C, the peptide solution was removed, and the cells were let to regenerate in CKM for 24 hours. Then 5 mg/mL 3-[4,5-dimethylthiazol-2-yl]-2,5-diphenyltetrazolium bromide (MTT) was added to each well and the plate was placed to 37°C for 4 hours. The amount of formazan formed by the activity of the mitochondrial succinate dehydrogenase of living cells was measured by using a microtiter plate reader (FLUOstar OPTIMA) at the wavelength of 560 nm.
10 μg/mL of primycin, a macrolide lactone antibiotic complex that rapidly kills PK cells, was used as a control for cytotoxicity in both assays.
MTT assays and impedance measurements were performed in at least four technical parallels and two biological replicates; all the data are presented as mean ± standard deviation. Significance was calculated with Newman-Keuls post hoc test using the GraphPad Prism version 5 for Windows and a probability (P) value of less than 0.05 was considered significant.

Compound | Minimal fungicidal concentration, 3 h (C. albicans WO-1) | Minimal fungicidal concentration, 24 h (C. albicans WO-1) | Anticandidal activity against the yeast form of growing C. albicans [1] | MIC ([1]; Candida albicans, SC5314, comparator value given in text, strain, method and source not given, read-out: MIC of amphotericin B) [µM] | MIC of amphotericin B ([1]; comparator value given in text, strain, method and source not given) | Efficiency of killing epithelial cells [2]
CC[C@H](C)[C@H](NC(=O)[C@H](Cc1ccc(O)cc1)NC(=O)[C@H](CC(N)=O)NC(=O)[C@H](CCCNC(=N)N)NC(=O)[C@@H](NC(=O)[C@H](CCC(N)=O)NC(=O)[C@H](CCCNC(=N)N)NC(=O)[C@H](CS)NC(=O)[C@H](CC(=O)O)NC(=O)[C@H](CCCCN)NC(=O)[C@H](CC(N)=O)NC(=O)[C@@H](NC(=O)[C@@H](NC(=O)[C@H](CS)NC(=O)[C@H](CC(N)=O)NC(=O)[C@H](CCCNC(=N)N)NC(=O)[C@H](CO)NC(=O)[C@@H](NC(=O)[C@@H]1CCCN1C(=O)[C@H](CC(C)C)NC(=O)[C@H](Cc1ccccc1)NC(=O)[C@H](C)N)[C@@H](C)O)[C@@H](C)CC)[C@@H](C)O)C(C)C)C(=O)N[C@@H](C)C(=O)N[C@@H](CCCNC(=N)N)C(=O)N[C@@H](CS)C(=O)N[C@@H](CCCNC(=N)N)C(=O)N[C@@H](CCCCN)C(=O)NCC(=O)N[C@@H](CCC(N)=O)C(=O)N[C@@H](CS)C(=O)N[C@@H](CC(C)C)C(=O)N[C@@H](CCC(N)=O)C(=O)N[C@@H](CO)C(=O)N1CCC[C@H]1C(=O)N[C@H](C(=O)N[C@@H](CCCNC(=N)N)C(=O)O)C(C)C [NCR030] (H-AFLPTSRNCITNKDCRQVRNYIARCRKGQCLQSPVR-OH; N-terminus and C-terminus assumed) | 12.5 (±2) μg/mL | 16.5 (±5) μg/mL | exhibited anticandidal activity |  |  | 
CC[C@H](C)[C@H](NC(=O)[C@H](CCCNC(=N)N)NC(=O)[C@H](CCCNC(=N)N)NC(=O)[C@H](CCCNC(=N)N)NC(=O)[C@@H](NC(=O)[C@H](CS)NC(=O)[C@H](Cc1ccc(O)cc1)NC(=O)CNC(=O)[C@H](CCCCN)NC(=O)[C@H](CCCNC(=N)N)NC(=O)[C@H](CS)NC(=O)[C@H](CCCNC(=N)N)NC(=O)[C@H](C)NC(=O)[C@H](CCCNC(=N)N)NC(=O)[C@H](Cc1ccc(O)cc1)NC(=O)[C@H](CC(N)=O)NC(=O)[C@H](CCCCN)NC(=O)[C@@H](NC(=O)[C@@H](NC(=O)[C@H](CO)NC(=O)[C@H](CS)NC(=O)[C@H](CCC(=O)O)NC(=O)[C@H](CCCCN)NC(=O)[C@H](CC(=O)O)NC(=O)[C@H](CO)NC(=O)[C@@H](NC(=O)[C@H](CS)NC(=O)[C@@H]1CCCN1C(=O)[C@H](CCCCN)NC(=O)[C@H](CO)NC(=O)[C@H](CC(C)C)NC(=O)[C@H](CCC(N)=O)NC(=O)[C@@H](NC(=O)[C@H](Cc1ccccc1)NC(=O)[C@H](C)N)[C@@H](C)CC)[C@@H](C)CC)[C@@H](C)CC)C(C)C)C(C)C)C(=O)N[C@@H](CCCNC(=N)N)C(=O)O [NCR044] (H-AFIQLSKPCISDKECSIVKNYRARCRKGYCVRRRIR-OH; N-terminus and C-terminus assumed) | 11 (±2) μg/mL | 6.25 (±1) μg/mL | exhibited anticandidal activity |  |  | 
CC[C@H](C)[C@H](NC(=O)[C@H](CC(N)=O)NC(=O)[C@H](Cc1c[nH]cn1)NC(=O)[C@@H]1CCCN1C(=O)[C@@H]1CCCN1C(=O)[C@H](CCSC)NC(=O)[C@H](CCCNC(=N)N)NC(=O)[C@@H]1CCCN1C(=O)[C@H](CS)NC(=O)[C@H](CC(=O)O)NC(=O)[C@H](CCCCN)NC(=O)[C@H](CC(=O)O)NC(=O)[C@@H](NC(=O)[C@H](CC(C)C)NC(=O)[C@H](CS)NC(=O)[C@@H]1CCCN1C(=O)[C@H](CCCNC(=N)N)NC(=O)[C@H](CC(C)C)NC(=O)[C@@H](NC(=O)[C@@H](N)CCSC)[C@@H](C)O)[C@@H](C)O)C(=O)N[C@@H](CCCCN)C(=O)N[C@@H](CS)C(=O)N[C@@H](CCCNC(=N)N)C(=O)N[C@@H](CCCCN)C(=O)NCC(=O)N[C@@H](Cc1c[nH]cn1)C(=O)N[C@@H](CS)C(=O)N[C@H](C(=O)N1CCC[C@H]1C(=O)N[C@H](C(=O)NCC(=O)N[C@@H](CCCCN)C(=O)N1CCC[C@H]1C(=O)N[C@@H](Cc1ccccc1)C(=O)N[C@@H](CCCCN)C(=O)O)[C@@H](C)CC)C(C)C [NCR137] (H-MTLRPCLTDKDCPRMPPHNIKCRKGHCVPIGKPFK-OH; N-terminus and C-terminus assumed) | 20 (±2.5) μg/mL | 25 (±3) μg/mL | exhibited anticandidal activity |  |  | 
CC[C@H](C)[C@H](N)C(=O)N[C@@H](Cc1ccc(O)cc1)C(=O)N[C@@H](Cc1ccccc1)C(=O)N1CCC[C@H]1C(=O)N[C@H](C(=O)N[C@@H](CO)C(=O)N[C@@H](CCCNC(=N)N)C(=O)N1CCC[C@H]1C(=O)N[C@@H](CS)C(=O)N[C@H](C(=O)N[C@H](C(=O)N[C@@H](CC(=O)O)C(=O)N[C@@H](CCCCN)C(=O)N[C@@H](CC(=O)O)C(=O)N[C@@H](CS)C(=O)N1CCC[C@H]1C(=O)N[C@@H](CC(N)=O)C(=O)N[C@@H](CCSC)C(=O)N[C@@H](CCCCN)C(=O)N[C@@H](Cc1c[nH]cn1)C(=O)N[C@@H](Cc1ccc(O)cc1)C(=O)N[C@@H](CCCCN)C(=O)N[C@@H](C)C(=O)N[C@@H](CCCCN)C(=O)N[C@@H](CS)C(=O)N[C@@H](CCCNC(=N)N)C(=O)N[C@@H](CCCCN)C(=O)NCC(=O)N[C@@H](Cc1ccccc1)C(=O)N[C@@H](CS)C(=O)N[C@H](C(=O)N[C@@H](CO)C(=O)N[C@@H](CO)C(=O)N[C@@H](CCCNC(=N)N)C(=O)N[C@H](C(=O)N[C@@H](CCCNC(=N)N)C(=O)O)C(C)C)[C@@H](C)CC)[C@@H](C)O)[C@@H](C)CC)C(C)C [NCR147] (H-IYFPVSRPCITDKDCPNMKHYKAKCRKGFCISSRVR-OH; N-terminus and C-terminus assumed) | 8 (±6.5) μg/mL | 9 (±4) μg/mL | exhibited anticandidal activity |  |  | 
CSCC[C@H](NC(=O)[C@H](Cc1ccccc1)NC(=O)[C@H](CCCCN)NC(=O)[C@@H]1CCCN1C(=O)[C@H](CS)NC(=O)[C@H](CCCNC(=N)N)NC(=O)CNC(=O)[C@H](CC(=O)O)NC(=O)[C@H](CCCNC(=N)N)NC(=O)CNC(=O)[C@H](CS)NC(=O)[C@H](CC(C)C)NC(=O)[C@@H](NC(=O)[C@H](CCCNC(=N)N)NC(=O)[C@@H](N)CCSC)C(C)C)C(=O)N[C@@H](CS)C(=O)N[C@@H](CCCNC(=N)N)C(=O)N[C@H](C(=O)N[C@@H](Cc1ccccc1)C(=O)N[C@@H](CC(C)C)C(=O)O)[C@@H](C)O [NCR280] (H-MRVLCGRDGRCPKFMCRTFL-OH) | 10 (±2) μg/mL | 8 (±3) μg/mL |  |  |  | 
C[C@@H]1[C@H](O)[C@@H](C)/C=C/C=C/C=C/C=C/C=C/C=C/C=C/[C@H](O[C@@H]2O[C@H](C)[C@@H](O)[C@H](N)[C@@H]2O)C[C@@H]2O[C@](O)(C[C@@H](O)C[C@@H](O)[C@H](O)CC[C@@H](O)C[C@@H](O)CC(=O)O[C@H]1C)C[C@H](O)[C@H]2C(=O)O [amphotericin B, reference compound] |  |  |  | 1.69 | ~ 1.7 μM | 
ITISNSSFGRIVYWNCKTDKDCKQHRGFNFRCRSGNCIPIRR (cysteines drawn unpaired) [NCR183] | 16.5 (±12) μg/mL | 15.5 (±13) μg/mL | exhibited anticandidal activity |  |  | 
primycin [reference compound] |  |  |  |  |  | about 90%
